In US7888328B2, “Oral formulations of cladribine” (Ares Trading S.A., priority 2003, dated 2011):
Converted amounts (≈) assume the structure as drawn.

Legend:
[1] = Phase solubility study of cladribine in HPβCD solutions; format: physicochemical; details: aqueous hydroxypropyl-β-cyclodextrin (HPβCD) solution, aqueous with cosolvent or surfactant or cyclodextrin, thermodynamic from solid; with about 0.14 mole of HPβCD; complexation conditions of EXAMPLE 2; read-out: cladribine maintained dissolved (phase solubility)
Description: Generally, the complexation is conducted with heating, for example at about 45 to about 60° C. for a significant period of time, e.g., at least 6-9 hours; it is believed that even better results can be obtained by heating at up to about 80° C. for up to 24 hours. Excess precipitated cladribine is then removed and the cladribine concentration is subsequently measured. This concentration represents the amount of cladribine solubilized for a given amorphous cyclodextrin concentration. […] Consequently, the data points correspond to the amount of cladribine dissolved in aqueous HPβCD or other amorphous cyclodextrin under the selected conditions; when later lyophilized, the solution yields a complex cladribine-cyclodextrin complex which is an intimate amorphous admixture of (a) an amorphous inclusion complex of cladribine with an amorphous cyclodextrin and (b) amorphous free cladribine associated with amorphous cyclodextrin as a non-inclusion complex. If equilibrium conditions are reached during the complexation, the amorphous cladribine-cyclodextrin complex will be saturated with cladribine.
A phase solubility study can be carried out as follows. […] The excess, undissolved cladribine is removed by filtration. […] This process is repeated with different known concentrations of HPβCD until several data points are obtained. […]

[2] = Clinical study, relative bioavailability: plasma cladribine after oral formulations vs subcutaneous administration; format: in vivo, human (patients with MS); details: human, sc, 3.0 mg subcutaneous, single dose, n = 12
Description: This study was a 2 center, open-label, randomized, 4-way crossover single dose study using twelve patients with MS. Patients received randomly three different fixed oral doses (3.0 mg) and a fixed subcutaneous dose of 3.0 mg. The four treatment days were separated by a drug-free interval of at least 5 days. In each treatment period, blood samples were collected over a 24-hour period for evaluation of plasma cladribine.
The plasma concentration of cladribine was measured by a HPLC/MS/MS method. […] The limit of quantification was 100 pg/ml. Analysis of samples was carried out in 16 runs.
576 clinical plasma samples were analyzed and concentration values of cladribine were determined.

[3] = Clinical study, dose response and absolute bioavailability: plasma cladribine after oral doses vs intravenous infusion; format: in vivo, human (patients with MS); details: n = 26; for AUC(0-inf) / AUC(0-t) / Cmax / Tmax / half-life: human, plasma; for AUC(0-inf) / AUC(0-t) / Cmax: Geom Mean; for Tmax / half-life: Mean ± SD
Source text: The objective of this study was to assess the systemic availability of cladribine after oral administration in two different fixed oral doses, in comparison with one fixed intravenous administration (reference formulation) in patients with MS (multiple sclerosis), and to evaluate the safety and tolerability of cladribine in this population.
This study was a 3 center, open-label, randomized, 3-way crossover single dose study using twenty-six patients with MS. […] The three treatment days were separated by a drug-free interval of at least 5 days. In each treatment period blood samples were collected over a 24-hour period for evaluation of plasma cladribine.
The plasma concentrations of cladribine were measured by a HPLC/MS/MS method. […] The limit of quantification was 100 pg/ml. Analysis of samples was carried out in 16 runs. Except the first run (which had to be rejected because of equipment failure), all other runs could be accepted. No calibrator had to be excluded from fitting of the calibration curve and accuracy of each quality control sample met the GLP requirements.
858 clinical plasma samples were analyzed and concentration values of cladribine were determined. The results were compiled and are summarized in the tables below [TABLES VII through X]. In these tables, the following definitions are applicable: Tmax is the time to reach maximum concentration in the plasma; T1/2 is the half-life of cladribine in the plasma; Cmax is the maximum concentration of cladribine in the plasma; AUCinf is the area under the curve for the measured data from zero extrapolated to infinity; AUCt is the area under the curve for the measured data (from zero to the last time point); Geom Mean is the geometric mean; CV is the coefficient of variation (relative standard deviation); LL is the lower limit; UL is the upper limit; σ^2 is the mean variance; σB^2 is the mean variance between subjects; σW^2 is the mean variance within subjects; CVT is the total coefficient of variation; and CVW is the coefficient of variation within subjects.

[4] = Oral Administration 10.0 mg vs 3.0 mg IV, dose normalized
[5] = Oral Administration 30.0 mg vs 3.0 mg IV, dose normalized
[6] = Oral Administration 3.0 mg (Batch N0120 3.0 mg tablets)
[7] = Oral Administration 10.0 mg (Batch N0126 10.0 mg tablets)

**Q.** Which results are given for Nc1nc(Cl)nc2c1ncn2[C@H]1C[C@H](O)[C@@H](CO)O1 [Cladribine, 2-chloro-2′-deoxyadenosine]?
**A.** solubility [1]: ~49 mM (≈ 14 mg/mL); AUC(0-inf) ([2]; Geom Mean): 57.3 ng·h/mL; AUC(0-t) ([2]; Geom Mean): 54.7 ng·h/mL; Cmax ([2]; Geom Mean): 23.2 ng/mL; Tmax ([2]; Mean ± SD): 0.313 ± 0.113 h; half-life ([2]; Mean ± SD): 6.69 ± 2.01 h; Ratio of Oral to I.V. AUCinf [3, 4]: 39.1; Ratio of Oral to I.V. AUCt [3, 4]: 39.4; Ratio of Oral to I.V. AUCinf [3, 5]: 34.5; Ratio of Oral to I.V. AUCt [3, 5]: 34.0; CVT (total coefficient of variation) of AUCinf ([3]; dose-adjusted PK parameter): 29.2%; CVT (total coefficient of variation) of AUCt ([3]; dose-adjusted PK parameter): 29.8%; CVT (total coefficient of variation) of Cmax ([3]; dose-adjusted PK parameter): 43.0%; CVW (coefficient of variation within subjects) of AUCinf ([3]; dose-adjusted PK parameter): 18.3%; CVW (coefficient of variation within subjects) of AUCt ([3]; dose-adjusted PK parameter): 19.1%; CVW (coefficient of variation within subjects) of Cmax ([3]; dose-adjusted PK parameter): 37.5%; AUC(0-inf) ([3]; 3.0 mg IV infusion (1 hour)): 58.5 ng·h/mL; AUC(0-t) ([3]; 3.0 mg IV infusion (1 hour)): 56.4 ng·h/mL; Cmax ([3]; 3.0 mg IV infusion (1 hour)): 21.4 ng/mL; Tmax ([3]; 3.0 mg IV infusion (1 hour)): 0.817 ± 0.397 h; half-life ([3]; 3.0 mg IV infusion (1 hour)): 6.5 ± 1.27 h; AUC(0-inf) [3, 6]: 20.2 ng·h/mL; AUC(0-t) [3, 6]: 19.2 ng·h/mL; Cmax [3, 6]: 5.61 ng/mL; Tmax [3, 6]: 0.548 ± 0.3 h; half-life [3, 6]: 5.85 ± 1.18 h; AUC(0-inf) [3, 7]: 76.7 ng·h/mL; AUC(0-t) [3, 7]: 74.5 ng·h/mL; Cmax [3, 7]: 21.2 ng/mL; Tmax [3, 7]: 0.558 ± 0.204 h; half-life [3, 7]: 5.6 ± 0.75 h; Ratio 10.0 mg/3.0 mg AUCinf ([3]; oral doses, dose normalized): 113.3; Ratio 10.0 mg/3.0 mg AUCt ([3]; oral doses, dose normalized): 115.8; Ratio 10.0 mg/3.0 mg Cmax ([3]; oral doses, dose normalized): 112.6
